According to patent US8871751B2, “Compositions and methods relating to nuclear hormone and steroid hormone receptors including inhibitors of estrogen receptor alpha-mediated gene expression and inhibition of breast cancer” (The Board of Trustees of the University of Illinois, priority 2008, dated 2014):
Several values for one entry are separate records, joined by “and”; a condition that tells them apart may be missing. Identical values can stand only once.

Target: T1, ERα (Homo sapiens, UniProt P03372)
T1 sequence (P03372 1-595): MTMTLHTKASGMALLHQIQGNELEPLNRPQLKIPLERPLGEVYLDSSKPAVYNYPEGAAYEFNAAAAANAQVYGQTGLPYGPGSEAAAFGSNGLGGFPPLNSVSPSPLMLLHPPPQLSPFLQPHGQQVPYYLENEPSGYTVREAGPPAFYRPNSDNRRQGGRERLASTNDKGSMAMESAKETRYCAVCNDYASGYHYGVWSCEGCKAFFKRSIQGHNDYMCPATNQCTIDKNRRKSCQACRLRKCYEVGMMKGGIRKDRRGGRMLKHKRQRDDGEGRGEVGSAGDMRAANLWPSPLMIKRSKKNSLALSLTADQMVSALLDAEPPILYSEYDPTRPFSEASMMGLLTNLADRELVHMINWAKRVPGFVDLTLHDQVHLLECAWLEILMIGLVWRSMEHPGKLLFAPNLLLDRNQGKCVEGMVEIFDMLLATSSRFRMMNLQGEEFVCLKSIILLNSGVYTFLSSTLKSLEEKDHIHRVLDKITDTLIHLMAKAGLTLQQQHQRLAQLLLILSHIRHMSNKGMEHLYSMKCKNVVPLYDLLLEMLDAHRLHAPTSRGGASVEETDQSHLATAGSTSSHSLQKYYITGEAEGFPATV
Test: PI-9 mRNA induction in tamoxifen-resistant MCF7ERαHA cells (qRT-PCR)
Type: cell-based
Design: endogenous in cells
Details: Dox
Description: A model for tamoxifen-resistant breast cancers that overexpress ERα is MCF7ERαHA cells, which is a tetracycline-inducible MCF-7 model in which doxycycline (Dox) induces overexpression of ERα (40,41). In contrast to MCF-7 cells, in these cells Tam and OHT are potent agonists (2,42) and OHT, which stabilizes ERα, induced proteinase inhibitor 9 (PI-9) mRNA and protein more effectively than E2 (2,43). MCF7ERαHA cells were maintained in 10% 6XCD-treated FBS (40,41). All cells were in 0.1% DMSO vehicle and contained the indicated concentrations of TPBM added at the same time as the E2 or OHT. To induce PI-9 mRNA, the cells were treated with 0.5 μg/ml doxycycline to induce ERα and ethanol vehicle, 100 pM E2 or 500 pM OHT for 24 h, mRNA was extracted and PI-9 mRNA levels were determined by quantitative RT-PCR as described (2).
Endogenous Gene Expression. MCF-7 cells or MCF7ERαHA cells were maintained for 4 days in medium containing 5% CD calf serum (MCF-7 cells) or 10% 6×CD-FBS (MCF7ERαHA cells). In assays of TPSF inhibition of PI-9 induction, cells were plated, incubated for 24 hours in the indicated concentrations of TPSF and then maintained 4 hours with and without E2, with and without TPSF. To induce ERα, MCF7ERαHA cells were also maintained in 0.5 μg/ml Dox for 24 hours prior to addition of E2 or OHT with or without TPSF. For induction of cyclin D1, 24 hours after plating the cells, E2 with and without TPSF was added, the cells were maintained for 24 hours, RNA was extracted and mRNA levels were determined by quantitative RT-PCR as described (19, 26). Actin mRNA levels were used as the qRT-PCR internal standard. The primers and sequences used in qRT-PCR were as follows.

Compound | inhibition of OHT-ERα induction of PI-9 mRNA (30 μM, 500 pM OHT) | IC50 (100 pM E2, 24 h, read-out: IC50 for inhibition of E2-ERα induction of PI-9 mRNA) | effect on E2-mediated induction of PI-9 mRNA (10 μM, 100 pM E2) | effect on OHT-ERα induction of PI-9 mRNA (10 μM, 500 pM OHT)
Cn1c(=O)c2nc(CSCc3ccccc3)[nH]c2n(C)c1=O [Compound 95910, 8-Benzylsulfanylmethyl-1,3-dimethyl-3,7-dihydro-purine-2,6-dione] | 48% | 9 µM and 8.5 µM |  | 
Cn1c(=S)c2[nH]c(SCCCC(=O)c3ccc(F)cc3)nc2n(C)c1=O [TPSF, Butyrophenone, p-fluoro-4-(1,2,3,6,-tetrahydro-1,3-dimethyl-2-oxo-6-thionopurin-8-ylthio)] |  |  | blocked | blocked
